Results published in patent US4024277A, “Phosphoro-aminosulfenyl derivatives of benzofuran carbamates” (priority 1975, dated 1977).

What was measured:
[1] = system: pea aphid; assay: Seven-day residual insecticidal activity, pea aphid; type: in vivo, Acyrthosiphon pisum (Harris); conditions: Acyrthosiphon pisum, 48-hour exposure, read-out: % Kill, Pea Aphid
Excerpt: (§1) b. Seven-Day Residual Insecticidal Activity
(§2) In this test, a candidate insecticide, in solution, is applied to uninfested plants or containers by dipping or spraying. A seven-day holding period is necessary before infestation. A 48-hour exposure period is observed before evaluation of the tests. The insect species used in this type of test are the same as those listed under initial activity.

[2] = system: house flies; assay: Level I immersion test, house flies; type: in vivo, Musca domestica Linnaeus; conditions: HF, 5 mg/milliliter; for % Knockdown: 10 minutes after immersion; for mortality at 5000 µg/mL: Musca domestica, after 18-24 hours, read-out: % Kill
Procedure: (§3) e. Insecticidal Activity Against House Flies and German Cockroaches
(§4) Compounds of this invention were tested in a Level I test at 5 mg. of active compounds/milliliter of a solution of 40% acetone -- 60% water.
(§5) In this test a group of ten house flies (Musca domestica Linnaeus) were completely immersed in 25 ml. of the insecticidal test solution. After 10 seconds of immersion, the test solution is removed. The house flies are then transferred to holding cages lines with paper toweling. In the case of the house flies, the knockdown counts were recorded 10 minutes after termination of the immersion. The percent kill was recorded after 18-24 hours.

[3] = system: female house flies (resistant); assay: Level II topical test, house flies; type: in vivo, Musca domestica Linnaeus; conditions: HF (female, resistant), one microgram topically per insect; for % Knockdown: 10 minutes; for mortality at 0.001 mg: Musca domestica, topical, read-out: % Kill
Procedure: as §3
In a Level II test the compounds of this invention were tested for insecticidal activity against female house flies (resistant) and male German cockroaches. Ten insects were anesthetized with carbon dioxide and placed in a container for about 2 hours, during which time the insects recovered to normal activity. The container confining the insects is fitted with a plunger which is used to force the insects against a nylon mesh at one end of the container. One microliter of an acetone solution containing one microgram of the candidate insecticide was applied topically to each insect. The plunger was withdrawn and the insects were allowed to move freely about the container. Knockdown counts were recorded 10 minutes after treatment of house flies and 30 minutes after treatment of cockroaches.

[4] = system: Mexican bean beetle; assay: Seven-day residual insecticidal activity, Mexican bean beetle; type: in vivo, Epilachna varivestis Mulsant; conditions: Epilachna varivestis, 48-hour exposure, read-out: % Kill, Mexican Bean Beetle
Excerpt: as §1, §2

[5] = system: pea aphid; assay: Initial insecticidal activity, pea aphid; type: in vivo, Acyrthosiphon pisum (Harris); conditions: Acyrthosiphon pisum, 48-hour exposure, read-out: % Kill, Pea Aphid
Excerpt: (§6) a. Initial Insecticidal Activity
(§7) In this test, a candidate insecticide, in solution, is applied to either infested or uninfested plants or containers by spraying or dipping. (The preferred test procedure varies with insect species. The dipping method is better than the spraying method, and vice versa, for certain species of insects. Also some species are better adapted to the test by infesting after the chemical treatment rather than before.) Once the tests have been established, a 48-hour exposure period is observed before reading the tests. Insect species included in these tests are Mexican bean beetle (Epilachna varivestis Mulsant), pea aphid [Acyrthosiphon pisum (Harris)], southern armyworm [Spodoptera eridania (Cramer)], twospotted spider mite (Tetranychus urticae Koch), large milkweed bug [Oncopeltus fasciatus (Dallas)], plum curculio [Conotrachelus nenuphar (Herbst)], confused flour beetle (Tribolium confusum Jacquelin duVal) and granary weevil [Sitophilus granarius (Linnaeus)]. Test results are set forth in Table I. A control sample, comprising the solution without the candidate insecticide, is also included.

[6] = system: Mexican bean beetle; assay: Systemic insecticidal activity (soil/water), Mexican bean beetle; type: in vivo, Epilachna varivestis Mulsant; conditions: Epilachna varivestis, 48-hour exposure, read-out: % Kill, Mexican Bean Beetle
Procedure: (§8) c. Systemic Insecticidal Acitivity (Soil/Water)
(§9) In this test, a candidate insecticide, in solution, is added to the soil of either uninfested pinto bean seedlings (Phaseolus vulgaris) or uninfested broad bean seedlings (Vicia faba var. Windsor). The plant species used depend on the insect species in the test. Usually, a 72-hour translocation period before infestation is required, followed by a 48-hour exposure period, before evaluation of the tests. The insect species used in the systemic tests are Mexican bean beetle, southern armyworm, pea aphid, and twospotted spider mite.

[7] = system: confused flour beetle; assay: Initial insecticidal activity, confused flour beetle; type: in vivo, Tribolium confusum Jacquelin duVal; conditions: Tribolium confusum, 48-hour exposure, read-out: % Kill, Confused Flour Beetle
Excerpt: as §6, §7

[8] = system: confused flour beetle; assay: Seven-day residual insecticidal activity, confused flour beetle; type: in vivo, Tribolium confusum Jacquelin duVal; conditions: Tribolium confusum, 48-hour exposure, read-out: % Kill, Confused Flour Beetle
Excerpt: as §1, §2

[9] = system: German cockroaches; assay: Level I immersion test, German cockroaches; type: in vivo, Blattella germanica (Linnaeus); conditions: GC (male), 5 mg/milliliter; for mortality at 5000 µg/mL: Blattella germanica, 18-24 hours, read-out: % Kill; for % Knockdown: 30 minutes after immersion
Procedure: as §3, §4, §5
The same Level I test technique was employed using male German cockroaches [Blattella germanica (Linnaeus)]. In this case, the knockdown counts were recorded 30 minutes after the termination of the immersion.

[10] = system: twospotted spider mite; assay: Seven-day residual insecticidal activity, twospotted spider mite; type: in vivo, Tetranychus urticae Koch; conditions: Tetranychus urticae, 48-hour exposure, read-out: % Kill, Twospotted Spider Mite
Excerpt: as §1, §2

[11] = system: large milkweed bug; assay: Seven-day residual insecticidal activity, milkweed bug; type: in vivo, Oncopeltus fasciatus (Dallas); conditions: Oncopeltus fasciatus, 48-hour exposure, read-out: % Kill, Milkweed Bug
Excerpt: as §1, §2

[12] = system: pea aphid; assay: Systemic insecticidal activity (soil/water), pea aphid; type: in vivo, Acyrthosiphon pisum (Harris); conditions: Acyrthosiphon pisum, 48-hour exposure, read-out: % Kill, Pea Aphid
Procedure: as §8, §9

[13] = system: twospotted spider mite; assay: Systemic insecticidal activity (soil/water), twospotted spider mite; type: in vivo, Tetranychus urticae Koch; conditions: Tetranychus urticae, 48-hour exposure, read-out: % Kill, Twospotted Spider Mite
Procedure: as §8, §9

[14] = system: twospotted spider mite; assay: Initial insecticidal activity, twospotted spider mite; type: in vivo, Tetranychus urticae Koch; conditions: Tetranychus urticae, 48-hour exposure, read-out: % Kill, Twospotted Spider Mite
Excerpt: as §6, §7

[15] = system: Mexican bean beetle; assay: Initial insecticidal activity, Mexican bean beetle; type: in vivo, Epilachna varivestis Mulsant; conditions: Epilachna varivestis, 48-hour exposure, read-out: % Kill, Mexican Bean Beetle
Excerpt: as §6, §7

[16] = system: southern armyworm; assay: Systemic insecticidal activity (soil/water), southern armyworm; type: in vivo, Spodoptera eridania (Cramer); conditions: Spodoptera eridania, 48-hour exposure, read-out: % Kill, Southern Armyworm
Procedure: as §8, §9

[17] = system: southern armyworm; assay: Seven-day residual insecticidal activity, southern armyworm; type: in vivo, Spodoptera eridania (Cramer); conditions: Spodoptera eridania, 48-hour exposure, read-out: % Kill, Southern Armyworm
Excerpt: as §1, §2

Compound: CCOP(=O)(OCC)N(CC)SN(C)C(=O)Oc1cccc2c1OC(C)(C)C2 [8(c), 2,3-Dihydro-2,2-dimethyl-7-benzofuranyl [(N-diethoxyphosphinyl) (N-ethyl)aminosulfenyl][methyl]carbamate]
- mortality at 39 ppm [1]: 0%
- mortality at 156 ppm [1]: 0%
- mortality at 1250 ppm [1]: 0%
- % Knockdown [2]: 100%
- mortality at 5000 µg/mL [2]: 100%
- % Knockdown [3]: 0%
- mortality at 0.001 mg [3]: 33%
- mortality at 39 ppm [4]: 12%
- mortality at 156 ppm [4]: 93%
- mortality at 1250 ppm [4]: 100%
- mortality at 39 ppm [5]: 0%
- mortality at 156 ppm [5]: 83%
- mortality at 1250 ppm [5]: 100%
- mortality at 39 ppm [6]: 67%
- mortality at 156 ppm [6]: 100%
- mortality at 39 ppm [7]: 0%
- mortality at 156 ppm [7]: 0%
- mortality at 1250 ppm [7]: 50%
- mortality at 39 ppm [8]: 0%
- mortality at 156 ppm [8]: 0%
- mortality at 1250 ppm [8]: 12%
- mortality at 5000 µg/mL [9]: 100%
- % Knockdown [9]: 100%
- mortality at 39 ppm [10]: 0%
- mortality at 156 ppm [10]: 0%
- mortality at 1250 ppm [10]: 0%
- mortality at 39 ppm [11]: 95%
- mortality at 156 ppm [11]: 100%
- mortality at 1250 ppm [11]: 100%
- mortality at 39 ppm [12]: 0%
- mortality at 156 ppm [12]: 100%
- mortality at 39 ppm [13]: 4%
- mortality at 156 ppm [13]: 13%
- mortality at 39 ppm [14]: 5%
- mortality at 156 ppm [14]: 36%
- mortality at 1250 ppm [14]: 100%
- mortality at 39 ppm [15]: 100%
- mortality at 156 ppm [15]: 100%
- mortality at 1250 ppm [15]: 100%
- mortality at 39 ppm [16]: 20%
- mortality at 156 ppm [16]: 57%
- mortality at 39 ppm [17]: 0%
- mortality at 156 ppm [17]: 0%
- mortality at 1250 ppm [17]: 43%

Compound: CCOP(=O)(OCC)N(C)SN(C)C(=O)Oc1cccc2c1OC(C)(C)C2 [Example 1(c), 2,3-dihydro-2,2-dimethyl-7-benzofuranyl [(N-diethoxyphosphinyl) (N-methyl)-aminosulfenyl][methyl]carbamate]
- mortality at 39 ppm [1]: 0%
- mortality at 156 ppm [1]: 0%
- mortality at 1250 ppm [1]: 100%
- % Knockdown [2]: 100%
- mortality at 5000 µg/mL [2]: 100%
- % Knockdown [3]: 0%
- mortality at 0.001 mg [3]: 20%
- mortality at 39 ppm [4]: 38%
- mortality at 156 ppm [4]: 89%
- mortality at 1250 ppm [4]: 86%
- mortality at 39 ppm [5]: 0%
- mortality at 156 ppm [5]: 100%
- mortality at 1250 ppm [5]: 100%
- mortality at 39 ppm [6]: 100%
- mortality at 156 ppm [6]: 95%
- mortality at 39 ppm [7]: 14%
- mortality at 156 ppm [7]: 15%
- mortality at 1250 ppm [7]: 33%
- mortality at 39 ppm [8]: 10%
- mortality at 156 ppm [8]: 18%
- mortality at 1250 ppm [8]: 23%
- mortality at 5000 µg/mL [9]: 100%
- % Knockdown [9]: 100%
- mortality at 39 ppm [10]: 2%
- mortality at 156 ppm [10]: 1%
- mortality at 1250 ppm [10]: 9%
- mortality at 39 ppm [11]: 55%
- mortality at 156 ppm [11]: 100%
- mortality at 1250 ppm [11]: 100%
- mortality at 39 ppm [12]: 100%
- mortality at 156 ppm [12]: 100%
- mortality at 39 ppm [13]: 2%
- mortality at 156 ppm [13]: 8%
- mortality at 39 ppm [14]: 21%
- mortality at 156 ppm [14]: 37%
- mortality at 1250 ppm [14]: 100%
- mortality at 39 ppm [15]: 100%
- mortality at 156 ppm [15]: 100%
- mortality at 1250 ppm [15]: 100%
- mortality at 39 ppm [16]: 0%
- mortality at 156 ppm [16]: 92%
- mortality at 39 ppm [17]: 0%
- mortality at 156 ppm [17]: 5%
- mortality at 1250 ppm [17]: 95%

Compound: CCCOP(=O)(OCCC)N(C)SN(C)C(=O)Oc1cccc2c1OC(C)(C)C2 [2(d), 2,3-dihydro-2,2-dimethyl-7-benzofuranyl [(N-di-n-propoxyphosphinyl) (N-methyl)aminosulfenyl][methyl]carbamate]
- mortality at 39 ppm [1]: 0%
- mortality at 156 ppm [1]: 0%
- mortality at 1250 ppm [1]: 56%
- % Knockdown [2]: 100%
- mortality at 5000 µg/mL [2]: 100%
- % Knockdown [3]: 0%
- mortality at 0.001 mg [3]: 40%
- mortality at 39 ppm [4]: 50%
- mortality at 156 ppm [4]: 76%
- mortality at 1250 ppm [4]: 100%
- mortality at 39 ppm [5]: 86%
- mortality at 156 ppm [5]: 100%
- mortality at 1250 ppm [5]: 100%
- mortality at 10 ppm ([6]; 10 ppm): 20%
- mortality at 39 ppm [6]: 85%
- mortality at 156 ppm [6]: 100%
- mortality at 39 ppm [7]: 0%
- mortality at 156 ppm [7]: 2%
- mortality at 1250 ppm [7]: 72%
- mortality at 39 ppm [8]: 0%
- mortality at 156 ppm [8]: 2%
- mortality at 1250 ppm [8]: 38%
- mortality at 5000 µg/mL [9]: 100%
- % Knockdown [9]: 100%
- mortality at 39 ppm [10]: 0%
- mortality at 156 ppm [10]: 0%
- mortality at 1250 ppm [10]: 1%
- mortality at 39 ppm [11]: 56%
- mortality at 156 ppm [11]: 100%
- mortality at 1250 ppm [11]: 100%
- mortality at 10 ppm ([12]; 10 ppm): 0%
- mortality at 39 ppm [12]: 11%
- mortality at 156 ppm [12]: 80%
- mortality at 10 ppm ([13]; 10 ppm): 0%
- mortality at 39 ppm [13]: 2%
- mortality at 156 ppm [13]: 18%
- mortality at 39 ppm [14]: 39%
- mortality at 156 ppm [14]: 91%
- mortality at 1250 ppm [14]: 100%
- mortality at 39 ppm [15]: 100%
- mortality at 156 ppm [15]: 100%
- mortality at 1250 ppm [15]: 100%
- mortality at 10 ppm ([16]; 10 ppm): 0%
- mortality at 39 ppm [16]: 94%
- mortality at 156 ppm [16]: 100%
- mortality at 39 ppm [17]: 0%
- mortality at 156 ppm [17]: 0%
- mortality at 1250 ppm [17]: 60%
